Our source for the IC50 values is patent publication US20240199546A1, “INHIBITORS OF SOLUTE CARRIER FAMILY 6A MEMBER 19 (SLC6A19) AND METHODS OF USE THEREOF” (Maze Therapeutics, Inc., priority 2022, published 2024).

The target of this assay is T1, human SLC6A19 and TMEM27 (Homo sapiens, UniProt Q695T7).
T1 construct: expressed in transfected cells
T1 sequence (Q695T7 1-634): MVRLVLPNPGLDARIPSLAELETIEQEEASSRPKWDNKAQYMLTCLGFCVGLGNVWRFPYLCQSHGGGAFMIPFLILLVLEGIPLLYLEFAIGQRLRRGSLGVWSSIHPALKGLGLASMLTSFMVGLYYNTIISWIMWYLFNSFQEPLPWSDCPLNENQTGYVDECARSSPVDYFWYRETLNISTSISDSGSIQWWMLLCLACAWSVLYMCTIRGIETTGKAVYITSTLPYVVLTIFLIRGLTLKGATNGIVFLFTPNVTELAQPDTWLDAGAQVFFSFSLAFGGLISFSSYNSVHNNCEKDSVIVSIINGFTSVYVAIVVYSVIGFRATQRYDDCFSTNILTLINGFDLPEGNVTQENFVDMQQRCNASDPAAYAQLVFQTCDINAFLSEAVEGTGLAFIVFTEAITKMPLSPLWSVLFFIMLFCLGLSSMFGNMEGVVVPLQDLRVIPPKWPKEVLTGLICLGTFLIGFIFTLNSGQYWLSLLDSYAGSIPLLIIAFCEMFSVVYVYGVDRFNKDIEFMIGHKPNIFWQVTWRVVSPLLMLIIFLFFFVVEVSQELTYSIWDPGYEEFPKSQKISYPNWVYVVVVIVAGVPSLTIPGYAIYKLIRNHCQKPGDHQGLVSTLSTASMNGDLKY
T1 sequence (Q9HBJ8 15-222 partner): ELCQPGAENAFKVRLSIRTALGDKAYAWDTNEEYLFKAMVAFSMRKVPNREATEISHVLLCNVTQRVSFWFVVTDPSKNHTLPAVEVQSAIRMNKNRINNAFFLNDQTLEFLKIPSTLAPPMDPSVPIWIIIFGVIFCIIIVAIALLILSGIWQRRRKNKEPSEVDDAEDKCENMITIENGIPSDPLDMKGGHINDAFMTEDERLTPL
As to the kind of experiment: 13C6,15N-isoleucine uptake in CHO cells with doxycycline-inducible expression of human SLC6A19 and TMEM27, RapidFire mass spectrometry (Example B-2). The settings on record: read-out: SLC6A19_RapidFire Uptake Assay IC50. The format is cell-based. As to the method:
Assay ready vials of CHO cells with doxycycline inducible expression of human SLC6A19 and TMEM27 were thawed, plated in T175 flasks containing DMEM/F12 media, 10% FBS, 1% Penicillin-Streptomycin, 1× UltraGlutamate, 1 mM Sodium Pyruvate, Sodium Bicarbonate (7.5 mL of 7.5% solution in 500 mL media final), 5 μg/mL Blasticidin, 150 μg/mL Hygromycin B Gold, and 500 μg/mL G418, and incubated (humidified, 37° C. with 5% CO2) for 48 hours. Media was then removed, flasks were washed with 20 mL of DPBS, and 5 mL of TrypLE™ Express was added to each flask to initiate cell dissociation. After 5 minutes, 10 mL of cell culture media was added to each flask and mixed. The cell suspension was collected and centrifuged for 5 minutes at 200×g. The supernatant was removed, and the pellet was resuspended in 10 mL of cell culture media. Resuspended cells were counted using a Vi-Cell. 30 μL/well (20,000 cells/well) of cell suspension was added to Poly-D-Lysine 384-well black/clear plates. Plates were incubated (humidified, 37° C. with 5% CO2) for 24 hours. To induce expression of human SLC6A19 and TMEM27, 10 μL of assay culture media containing 4 μg/mL doxycycline was added to each well. Assay plates were then incubated (humidified, 37° C. with 5% CO2) overnight. After incubation, the media was removed, and wells were washed 3 times with 40 μL of warmed DPBS. Next, 10 μL of warmed assay buffer (137 mM NaCl, 5 mM KCl, 1 mM CaCl2), 1 mM MgCl2, 10 mM HEPES, 10 mM glucose, pH 7.2) was added to each well. 10 μL/well of test compound or positive control compound to define 0% activity (i.e., 100% inhibition), was then added into each well. All compounds were plated in a duplicate 10-point dilution series that consisted of 2-fold dilutions. The plates were incubated (humidified, 37° C. with 5% C2) with compound for 20 minutes. Afterwards, 20 μL/well of 2 mM 13C6,15N-1-isoleucine was added to each well and plates were incubated again (humidified, 37° C. with 5% C02) for another 20 minutes. Assay buffer was then removed, and plates were washed. 70 μL/well of stop solution (75% acetonitrile, 25% HPLC grade water, 250 nM 1-leucine-1-13C (RapidFire standard)) was added to each well. The plates were sealed and then placed in a −20° C. freezer for 20 minutes. The plates were thawed at room temperature for 20 minutes and then centrifuge for 20 minutes at 3000 rpm. Using an ABSciex API4000 mass spectrometer, processed samples were loaded onto the graphitic carbon SPE-column. The time for aspiration, load/wash, elution and re-equilibration time was 600, 1500, 3000 and 500 milliseconds, respectively. Peak areas were calculated using RapidFire Integrator software.
In the case of `O=C(NCc1cc2cc(Cl)c(OCc3ccon3)cc2[nH]1)N1CCCC1` [Compound 112, N-((5-chloro-6-(isoxazol-3-ylmethoxy)-1H-indol-2-yl)methyl)pyrrolidine-1-carboxamide], the IC50 stood at 193 nM.

`O=C(NCc1cc2cc(Cl)c(OCc3cncs3)cc2[nH]1)N1CCCC1` [Compound 119, N-((5-chloro-6-(thiazol-5-ylmethoxy)-1H-indol-2-yl)methyl) pyrrolidine-1-carboxamide]: the IC50 stood at 485 nM.

Turning to `Cc1c(CNC(=O)C2(C)CC2)[nH]c2cc(OCc3ccon3)ccc12` [Compound 155, N-((6-(isoxazol-3-ylmethoxy)-3-methyl-1H-indol-2-yl)methyl)-1-methylcyclopropane-1-carboxamide], the half-maximal inhibitory concentration (IC50) was found to be 311 nM.

Take `Cc1c(CNC(=O)C2(C)CC2)[nH]c2cc(OCc3ccccc3)ccc12` [Compound 156, N-((6-(benzyloxy)-3-methyl-1H-indol-2-yl)methyl)-1-methylcyclopropane-1-carboxamide]: the half-maximal inhibitory concentration (IC50) came to 198 nM.

On to `CC1(C(=O)NCc2[nH]c3cc(OCc4ccon4)ccc3c2Cl)CC1` [Compound 157, N-((3-chloro-6-(isoxazol-3-ylmethoxy)-1H-indol-2-yl)methyl)-1-methylcyclopropane-1-carboxamide], for which the IC50 stood at 43 nM.

As for `CC1(C(=O)NCc2[nH]c3cc(OCc4ccccc4)ccc3c2Cl)CC1` [Compound 158, N-((6-(benzyloxy)-3-chloro-1H-indol-2-yl)methyl)-1-methylcyclopropane-1-carboxamide], the half-maximal inhibitory concentration (IC50) was determined as 188 nM.

With `CC1(C(=O)NCc2cc3cc(Cl)c(Cc4ccon4)cc3[nH]2)CC1` [Compound 159, N-((5-chloro-6-(isoxazol-3-ylmethyl)-1H-indol-2-yl)methyl)-1-methylcyclopropanecarboxamide], the concentration for half-maximal inhibition (IC50) was 493 nM.

In the case of `Cc1cc(Cc2ccc3cc(CNC(=O)C4(C)CC4)[nH]c3c2)no1` [Compound 160, 1-methyl-N-((6-((5-methylisoxazol-3-yl)methyl)-1H-indol-2-yl)methyl)cyclopropanecarboxamide], the IC50 was above 50000 nM.

With `CC1(C(=O)NCc2cc3cc(Cl)c(OCc4cocn4)cc3[nH]2)CC1` [Compound 161, N-((5-chloro-6-(oxazol-4-ylmethoxy)-1H-indol-2-yl)methyl)-1-methylcyclopropane-1-carboxamide], the concentration for half-maximal inhibition (IC50) turned out to be 68 nM.

Regarding `CNC(=O)COc1ccc2cc(CNC(=O)C3(C)CC3)[nH]c2c1` [Compound 162, 1-methyl-N-((6-(2-(methylamino)-2-oxoethoxy)-1H-indol-2-yl)methyl)cyclopropane-1-carboxamide], the IC50 is 16300 nM.

For `CC1(C(=O)NCc2cc3ccc(OCc4cnco4)cc3[nH]2)CC1` [Compound 163, 1-methyl-N-((6-(oxazol-5-ylmethoxy)-1H-indol-2-yl)methyl)cyclopropane-1-carboxamide], the concentration for half-maximal inhibition (IC50) amounted to 920 nM.

`CC1(C(=O)NCc2cc3ccc(OCc4cscn4)cc3[nH]2)CC1` [Compound 164, 1-methyl-N-((6-(thiazol-4-ylmethoxy)-1H-indol-2-yl)methyl)cyclopropane-1-carboxamide]: the IC50 stood at 98 nM.

With `Cc1nnc(COc2ccc3cc(CNC(=O)C4(C)CC4)[nH]c3c2)s1` [Compound 165, 1-methyl-N-((6-((5-methyl-1,3,4-thiadiazol-2-yl)methoxy)-1H-indol-2-yl)methyl)cyclopropane-1-carboxamide], the IC50 was 2180 nM.

Take `CC1(C(=O)NCc2cc3ccc(OCc4cnsn4)cc3[nH]2)CC1` [Compound 166, N-((6-((1,2,5-thiadiazol-3-yl)methoxy)-1H-indol-2-yl)methyl)-1-methylcyclopropane-1-carboxamide]: the 50% inhibitory concentration (IC50) was 48 nM.

Turning to `Cc1nnc(COc2ccc3cc(CNC(=O)C4(C)CC4)[nH]c3c2)o1` [Compound 167, 1-methyl-N-((6-((5-methyl-1,3,4-oxadiazol-2-yl)methoxy)-1H-indol-2-yl)methyl)cyclopropane-1-carboxamide], the IC50 is 7500 nM.

As for `Cn1cc(COc2ccc3cc(CNC(=O)C4(C)CC4)[nH]c3c2)nn1` [Compound 168, 1-methyl-N-((6-((1-methyl-1H-1,2,3-triazol-4-yl)methoxy)-1H-indol-2-yl)methyl)cyclopropane-1-carboxamide], the IC50 is 7440 nM.

On to `Cc1noc(COc2ccc3cc(CNC(=O)C4(C)CC4)[nH]c3c2)n1` [Compound 169, 1-methyl-N-((6-((3-methyl-1,2,4-oxadiazol-5-yl)methoxy)-1H-indol-2-yl)methyl)cyclopropane-1-carboxamide], for which the IC50 came out at 83 nM.

`CC1(C(=O)NCc2cc3ccc(OCc4csnn4)cc3[nH]2)CC1` [Compound 170, N-((6-((1,2,3-thiadiazol-4-yl)methoxy)-1H-indol-2-yl)methyl)-1-methylcyclopropane-1-carboxamide]: the IC50 is 187 nM.

For `CC1(C(=O)NCc2cc3ccc(OCc4nncs4)cc3[nH]2)CC1` [Compound 171, N-((6-((1,3,4-thiadiazol-2-yl)methoxy)-1H-indol-2-yl)methyl)-1-methylcyclopropane-1-carboxamide], the IC50 amounted to 1730 nM.

Consider `Cn1ncc(COc2ccc3cc(CNC(=O)C4(C)CC4)[nH]c3c2)n1` [Compound 173, 1-methyl-N-((6-((2-methyl-2H-1,2,3-triazol-4-yl)methoxy)-1H-indol-2-yl)methyl)cyclopropane-1-carboxamide], for which the 50% inhibitory concentration (IC50) was determined as 926 nM.

Regarding `Cn1nnc(COc2ccc3cc(CNC(=O)C4(C)CC4)[nH]c3c2)n1` [Compound 174, 1-methyl-N-((6-((2-methyl-2H-tetrazol-5-yl)methoxy)-1H-indol-2-yl)methyl)cyclopropane-1-carboxamide], the IC50 was 2080 nM.

For the compound `Cc1cc(COc2cc3[nH]c(CNC(=O)C4(C)CC4)cc3cc2Cl)on1` [Compound 175, N-((5-chloro-6-((3-methylisoxazol-5-yl)methoxy)-1H-indol-2-yl)methyl)-1-methylcyclopropane-1-carboxamide], the 50% inhibitory concentration (IC50) was 38 nM.

`Cc1ncc(COc2cc3[nH]c(CNC(=O)C4(C)CC4)cc3cc2Cl)s1` [Compound 176, N-((5-chloro-6-((2-methylthiazol-5-yl)methoxy)-1H-indol-2-yl)methyl)-1-methylcyclopropane-1-carboxamide]: the concentration for half-maximal inhibition (IC50) is 528 nM.

With `Cc1ncc(COc2ccc3cc(CNC(=O)C4(C)CC4)[nH]c3c2)s1` [Compound 178, 1-methyl-N-((6-((2-methylthiazol-5-yl)methoxy)-1H-indol-2-yl)methyl)cyclopropane-1-carboxamide], the 50% inhibitory concentration (IC50) was found to be 511 nM.

`Cc1nc(COc2ccc3cc(CNC(=O)C4(C)CC4)[nH]c3c2)cs1` [Compound 179, 1-methyl-N-((6-((2-methylthiazol-4-yl)methoxy)-1H-indol-2-yl)methyl)cyclopropane-1-carboxamide]: the IC50 amounted to 1420 nM.

`Cc1nc(COc2ccc3cc(CNC(=O)C4(C)CC4)[nH]c3c2)co1` [Compound 180, 1-methyl-N-((6-((2-methyloxazol-4-yl)methoxy)-1H-indol-2-yl)methyl)cyclopropane-1-carboxamide]: the half-inhibitory concentration (IC50) came out at 563 nM.
